Source: PubChem BioAssay (NCI)
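48-hour exposure; five concentrations; linearly interpolated endpoints. Here, GI50 denotes the concentration required for 50% inhibition of growth. TGI: concentration producing complete growth inhibition.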

Columns and labels:
Test in all cases: DTP human tumour cell line panel, 48 h
HL-60(TB) leukemia = tested on: HL-60(TB) leukemia
MDA-MB-435 = tested on: MDA-MB-435
NCI-H460 lung = tested on: NCI-H460 lung
NCI/ADR-RES ovarian = tested on: NCI/ADR-RES ovarian
OVCAR-4 ovarian = tested on: OVCAR-4 ovarian
UO-31 renal = tested on: UO-31 renal
TK-10 renal = tested on: TK-10 renal
M14 melanoma = tested on: M14 melanoma
HCT-15 colon = tested on: HCT-15 colon
HOP-92 NSCLC = tested on: HOP-92 NSCLC
NCI-H23 lung = tested on: NCI-H23 lung
HS 578T breast = tested on: HS 578T breast
MDA-MB-468 breast = tested on: MDA-MB-468 breast
HOP-62 NSCLC = tested on: HOP-62 NSCLC
SNB-19 CNS = tested on: SNB-19 CNS
CCRF-CEM leukemia = tested on: CCRF-CEM leukemia
OVCAR-8 ovarian = tested on: OVCAR-8 ovarian
UACC-62 melanoma = tested on: UACC-62 melanoma
SK-MEL-2 melanoma = tested on: SK-MEL-2 melanoma
BT-549 breast = tested on: BT-549 breast
SNB-75 CNS = tested on: SNB-75 CNS
COLO 205 colon = tested on: COLO 205 colon
786-0 renal = tested on: 786-0 renal
MCF7 breast = tested on: MCF7 breast
PC-3 prostate = tested on: PC-3 prostate
SF-268 CNS = tested on: SF-268 CNS
SF-539 CNS = tested on: SF-539 CNS
RXF 393 renal = tested on: RXF 393 renal
RPMI-8226 leukemia = tested on: RPMI-8226 leukemia
HCT-116 colon = tested on: HCT-116 colon
A549 NSCLC = tested on: A549 NSCLC
SK-MEL-28 melanoma = tested on: SK-MEL-28 melanoma
HT29 colon = tested on: HT29 colon
NCI-H522 lung = tested on: NCI-H522 lung
CAKI-1 renal = tested on: CAKI-1 renal
U251 CNS = tested on: U251 CNS
SK-MEL-5 melanoma = tested on: SK-MEL-5 melanoma
MALME-3M melanoma = tested on: MALME-3M melanoma
IGROV1 ovarian = tested on: IGROV1 ovarian
NCI-H226 lung = tested on: NCI-H226 lung
OVCAR-3 ovarian = tested on: OVCAR-3 ovarian
MDA-MB-231 breast = tested on: MDA-MB-231 breast
SF-295 CNS = tested on: SF-295 CNS
SW-620 colon = tested on: SW-620 colon
OVCAR-5 ovarian = tested on: OVCAR-5 ovarian
UACC-257 melanoma = tested on: UACC-257 melanoma
T-47D breast = tested on: T-47D breast
A498 renal = tested on: A498 renal
ACHN renal = tested on: ACHN renal
SN12C renal = tested on: SN12C renal
SR leukemia = tested on: SR leukemia
DU-145 prostate = tested on: DU-145 prostate
MOLT-4 leukemia = tested on: MOLT-4 leukemia
K-562 leukemia = tested on: K-562 leukemia
SK-OV-3 ovarian = tested on: SK-OV-3 ovarian
KM12 colon = tested on: KM12 colon
LOX IMVI melanoma = tested on: LOX IMVI melanoma
EKVX NSCLC = tested on: EKVX NSCLC
HCC-2998 colon = tested on: HCC-2998 colon

CCOc1ccc2ncc(C#Cc3cncc(C(=O)Nc4ccc(CN5CCN(C)CC5)c(C(F)(F)F)c4)c3)n2n1
GI50 (HL-60(TB) leukemia): 521 nM
TGI (HL-60(TB) leukemia): 16300 nM
GI50 (MDA-MB-435): 592 nM
TGI (MDA-MB-435): 5150 nM
GI50 (NCI-H460 lung): 534 nM
TGI (NCI-H460 lung): 16900 nM
GI50 (NCI/ADR-RES ovarian): 1160 nM
TGI (NCI/ADR-RES ovarian): 2660 nM
GI50 (OVCAR-4 ovarian): 3560 nM
TGI (OVCAR-4 ovarian): 28700 nM
GI50 (UO-31 renal): 2200 nM
TGI (UO-31 renal): 13700 nM
GI50 (TK-10 renal): 8090 nM
TGI (TK-10 renal): 23300 nM
GI50 (M14 melanoma): 416 nM
TGI (M14 melanoma): 1790 nM
GI50 (HCT-15 colon): 357 nM
TGI (HCT-15 colon): 1660 nM
GI50 (HOP-92 NSCLC): 206 nM
TGI (HOP-92 NSCLC): 1340 nM
GI50 (NCI-H23 lung): 393 nM
TGI (NCI-H23 lung): 4900 nM
GI50 (HS 578T breast): 283 nM
TGI (HS 578T breast): 3110 nM
GI50 (MDA-MB-468 breast): 1660 nM
TGI (MDA-MB-468 breast): 11100 nM
GI50 (HOP-62 NSCLC): 1250 nM
TGI (HOP-62 NSCLC): 14400 nM
GI50 (SNB-19 CNS): 6370 nM
TGI (SNB-19 CNS): 21700 nM
GI50 (CCRF-CEM leukemia): 64.2 nM
TGI (CCRF-CEM leukemia): > 21200 nM
GI50 (OVCAR-8 ovarian): 3210 nM
TGI (OVCAR-8 ovarian): 10600 nM
GI50 (UACC-62 melanoma): 9920 nM
TGI (UACC-62 melanoma): 24500 nM
GI50 (SK-MEL-2 melanoma): 1340 nM
TGI (SK-MEL-2 melanoma): 11900 nM
GI50 (BT-549 breast): 1790 nM
TGI (BT-549 breast): 12400 nM
GI50 (SNB-75 CNS): 3310 nM
TGI (SNB-75 CNS): 16300 nM
GI50 (COLO 205 colon): 272 nM
TGI (COLO 205 colon): 883 nM
GI50 (786-0 renal): 1560 nM
TGI (786-0 renal): 2950 nM
GI50 (MCF7 breast): 208 nM
TGI (MCF7 breast): 1740 nM
GI50 (PC-3 prostate): 1520 nM
TGI (PC-3 prostate): 19200 nM
GI50 (SF-268 CNS): 1920 nM
TGI (SF-268 CNS): 17600 nM
GI50 (SF-539 CNS): 143 nM
TGI (SF-539 CNS): 755 nM
GI50 (RXF 393 renal): 890 nM
TGI (RXF 393 renal): 2340 nM
GI50 (RPMI-8226 leukemia): 1060 nM
TGI (RPMI-8226 leukemia): 4380 nM
GI50 (HCT-116 colon): 225 nM
TGI (HCT-116 colon): 1560 nM
GI50 (A549 NSCLC): 1160 nM
TGI (A549 NSCLC): 22700 nM
GI50 (SK-MEL-28 melanoma): 1300 nM
TGI (SK-MEL-28 melanoma): 2660 nM
GI50 (HT29 colon): 475 nM
TGI (HT29 colon): 2390 nM
GI50 (NCI-H522 lung): 1400 nM
TGI (NCI-H522 lung): 21900 nM
GI50 (CAKI-1 renal): 790 nM
TGI (CAKI-1 renal): 13200 nM
GI50 (U251 CNS): 11700 nM
TGI (U251 CNS): 30900 nM
GI50 (SK-MEL-5 melanoma): 1890 nM
TGI (SK-MEL-5 melanoma): 7250 nM
GI50 (MALME-3M melanoma): 353 nM
TGI (MALME-3M melanoma): 1710 nM
GI50 (IGROV1 ovarian): 2180 nM
TGI (IGROV1 ovarian): 19100 nM
GI50 (NCI-H226 lung): 151 nM
TGI (NCI-H226 lung): 1850 nM
GI50 (OVCAR-3 ovarian): 4500 nM
TGI (OVCAR-3 ovarian): 24600 nM
GI50 (MDA-MB-231 breast): 362 nM
TGI (MDA-MB-231 breast): 2870 nM
GI50 (SF-295 CNS): 918 nM
TGI (SF-295 CNS): 19000 nM
GI50 (SW-620 colon): 287 nM
TGI (SW-620 colon): 2300 nM
GI50 (OVCAR-5 ovarian): 802 nM
TGI (OVCAR-5 ovarian): 12000 nM
GI50 (UACC-257 melanoma): 2160 nM
TGI (UACC-257 melanoma): 11400 nM
GI50 (T-47D breast): 17800 nM
TGI (T-47D breast): > 70500 nM
GI50 (A498 renal): 6960 nM
TGI (A498 renal): 24300 nM
GI50 (ACHN renal): 561 nM
TGI (ACHN renal): 15000 nM
GI50 (SN12C renal): 643 nM
TGI (SN12C renal): 11700 nM
GI50 (SR leukemia): 723 nM
TGI (SR leukemia): 9400 nM
GI50 (DU-145 prostate): 1100 nM
TGI (DU-145 prostate): 17300 nM
GI50 (MOLT-4 leukemia): 316 nM
TGI (MOLT-4 leukemia): 3350 nM
TGI (K-562 leukemia): 1360 nM
GI50 (SK-OV-3 ovarian): 4640 nM
TGI (SK-OV-3 ovarian): 19700 nM
TGI (KM12 colon): 10500 nM
GI50 (LOX IMVI melanoma): 608 nM
TGI (LOX IMVI melanoma): 1940 nM
GI50 (EKVX NSCLC): 704 nM
TGI (EKVX NSCLC): 17800 nM
GI50 (HCC-2998 colon): 2340 nM
TGI (HCC-2998 colon): 20100 nM
